# Experimental data as given in patent US9650423B2, “Long peptides of 22-45 amino acid residues that induce and/or enhance antigen specific immune responses” (priority 2000, dated 2017).
# Like-named read-outs stand apart in the source and are kept apart here. Residues, ends and D or L forms follow the SMILES beside them. No end group written: not given here.
# Legend:
# HLA-DR2 (DRB1*0201) = assay: HLA-DR-peptide binding assay; set-up: species or system human
# HLA-DR3 (DRB*0301) = assay: HLA-DR-peptide binding assay; set-up: species or system human
# HLA-DR4 (DRB*0401) = assay: HLA-DR-peptide binding assay; set-up: species or system human
# healthy donor PBMC = type: cell-based, human; conditions: for mean percentage of wells exceeding medium control + 3 * SD: 10 μg/ml, day 6, two assays
# HLA-DR1 (DRB*0101) = target: T1, HLA-DR1 (DRB*0101) (Homo sapiens, UniProt P01903+P01911, A100R/D57E/F55L/F60I/F76Y/I96L/L162R/M171V/P40L/Q125E/R42F/V115G/Y59C); assay: biochemical; type: binding
# T1 construct: endogenous in cells; host or cells: LG2.1 B-lymphoblastic cell line, homozygous for HLA-DR
# [1] = test system: HPV16 E7-specific T-helper clones; assay: HPV16 E7-specific Th-clones: proliferation and IFNγ production; type: cell-based, human; conditions: for recognition by HLA-DQ2 restricted Th-clone, IFNγ secretion: Th-clone from HLA-DR3, DQ2 positive PBMC stimulated with peptide E722-56; for response of HLA-DR15 restricted Th-clone to pulsed APC: Th-clone from HLA-DR15, 4 and DQ6,7 positive PBMC raised against peptide E741-62
# Method: Peptide-specific T-cell bulk cultures were generated as described previously (van der Burg et al., 1999) using either the E7 22-mer or E7 35-mer peptides. Specific proliferation was measured by incubation of 50,000 responders with an equal amount of irradiated (30Gy) APC (autologous PBMC unless indicated otherwise) and peptide or protein as indicated. E7-peptide and -protein-specific bulk T-cells were cloned by limiting dilution as described previously (van der Burg et al., 1999).
# To determine specific excretion of cytokines, T-cell clones were stimulated by incubation of 50.000 T-cells with an equal amount of APC (30Gy) together with 10 μg/ml peptide, control peptide, E7 protein or control protein as indicated. After 24 hours of incubation, supernatant was harvested and replicate wells were pooled. Cytokine production was measured by Enzyme-Linked Immunosorbent Assay (ELISA) as described previously (van der Burg et al., 1999).
# [2] = test system: E7 49-57-specific CD8+ T cells; assay: Vaccination, H-2Db E7 49-57 tetramer staining of spleen cultures; type: in vivo, C57BL/6 mice; conditions: B6 mice
# Method: Immunization strategies. C57BL/6 mice were injected subcutaneously with either 50 μg E7^49-57 peptide or 150 μg E7^43-77 35-mer dissolved in PBS in order to achieve similar molar levels of the E7^49-57 CTL epitope in both cases. Combinations with various adjuvantia were tested. In the case of IFA and Montanide, the dissolved peptides were emulsified in 50% of these respective substances. ODN-CpG (50 μg/mouse), MPL (10 μg/mouse) and GM-CSF (4 μg/mouse) were all dissolved in PBS and mixed with the peptides before subcutaneous vaccination. The total injected volume was 200 μl/mouse.
# T cell cultures. T cells were obtained from immunized mice by culturing spleen cells (5×10^6 cells/well of a 24-wells plate) in complete medium in the presence of 0.5×10^6 E7^49-57-expressing cells (tumor cell line 13.2) or, when indicated, in the presence of D1 cells.
# Tetramer staining. Spleen cultures, stimulated with tumor cell line 13.2 for seven days, were transferred at an amount of 40×10^4 per well to 96-well V-bottom microtiter plates and washed twice with PBS/BSA 0.5%. Subsequently, PE-labelled E749-57-containing tetramer was added. After 30 minutes of incubation at room temperature, cells were washed twice with PBS/BSA 0.5% and incubated with FITC-labelled anti CD8b Ab for 30 minutes. Subsequently cells were washed twice in PBS/BSA 0.5%, suspended in PBS/BSA 0.5% containing Propidium Iodide (PI) (0.5) μg/ml) and transferred to tubes. Cell samples were analysed in a FACSCalibur flow cytometer (Becton Dickinson, San Jose, Calif., USA) using CellQuest software. A total of 20×10^4 events was analysed for fluorescence intensity. Debris was gated out using the PI staining and subsequently the CD8^+ fraction was gated. […] As a positive control the HPV16 E7 specific CTL clone 9.5 was used.
# [3] = HPV16-E2 peptides, >70 represents undetectable binding, read-out: Binding affinity DR2, IC50
# [4] = HPV16-E2 peptides, >70 represents undetectable binding, read-out: Binding affinity DR3, IC50
# [5] = HPV16-E2 peptides, >70 represents undetectable binding, read-out: Binding affinity DR4, IC50
# [6] = HPV16-E2 peptides, >70 represents undetectable binding, read-out: Binding affinity DR1, IC50
compound,measurement,setting,value
CC[C@H](C)[C@H](NC(=O)[C@H](CCCNC(=N)N)NC(=O)CNC(=O)[C@H](CCCCN)NC(=O)[C@H](Cc1c[nH]cn1)NC(=O)[C@H](CO)NC(=O)[C@H](CO)NC(=O)[C@H](CC(N)=O)NC(=O)[C@@H](N)Cc1ccccc1)C(=O)N[C@@H](CC(N)=O)C(=O)N[C@@H](CS)C(=O)N[C@@H](CC(N)=O)C(=O)N[C@@H](CO)C(=O)N[C@@H](CC(N)=O)C(=O)N[C@H](C(=O)N[C@H](C(=O)N1CCC[C@H]1C(=O)N[C@H](C(=O)N[C@H](C(=O)N[C@@H](Cc1c[nH]cn1)C(=O)N[C@@H](CC(C)C)C(=O)N[C@@H](CCCCN)C(=O)NCC(=O)N[C@@H](CC(=O)O)C(=O)N[C@@H](C)C(=O)N[C@@H](CC(N)=O)C(=O)N[C@H](C(=O)N[C@@H](CC(C)C)C(=O)N[C@@H](CCCCN)C(=O)N[C@@H](CS)C(=O)O)[C@@H](C)O)C(C)C)[C@@H](C)CC)[C@@H](C)O)[C@@H](C)O [E2 271-300] (H-FNSSHKGRINCNSNTTPIVHLKGDANTLKC-OH; N-terminus and C-terminus assumed),IC50,HLA-DR2 (DRB1*0201); [3],65 µM
same,IC50,HLA-DR3 (DRB*0301); [4],37 µM
same,IC50,HLA-DR4 (DRB*0401); [5],> 70 µM
same,mean percentage of wells exceeding medium control + 3 * SD,healthy donor PBMC; donor D8,88%
AIVTLTYDSEWQRDQFLSQVKIPKTITVSTGFMSI [E2 331-365],IC50,HLA-DR1 (DRB*0101); [6],8 µM
same,IC50,HLA-DR2 (DRB1*0201); [3],20 µM
same,IC50,HLA-DR3 (DRB*0301); [4],10 µM
same,IC50,HLA-DR4 (DRB*0401); [5],15 µM
same,mean percentage of wells exceeding medium control + 3 * SD,healthy donor PBMC; donor D3,100%
same,mean percentage of wells exceeding medium control + 3 * SD,healthy donor PBMC; donor D7,75%
"E2 31-60: 30-mer, amino acids 31-60 of HPV16 E2 protein (DYWKHMRLECAIYYKAREMGFKHINHQVVP; UniProt P03120 31-60, looked up, fragment)",mean percentage of wells exceeding medium control + 3 * SD,healthy donor PBMC; donor D3,81%
same,mean percentage of wells exceeding medium control + 3 * SD,healthy donor PBMC; donor D8,88%
"E2 46-75: 30-mer, amino acids 46-75 of HPV16 E2 protein (AREMGFKHINHQVVPTLAVSKNKALQAIEL; UniProt P03120 46-75, looked up, fragment)",mean percentage of wells exceeding medium control + 3 * SD,healthy donor PBMC; donor D3,88%
same,mean percentage of wells exceeding medium control + 3 * SD,healthy donor PBMC; donor D5,81%
same,mean percentage of wells exceeding medium control + 3 * SD,healthy donor PBMC; donor D8,94%
"E2 91-120: 30-mer, amino acids 91-120 of HPV16 E2 protein (KWTLQDVSLEVYLTAPTGCIKKHGYTVEVQ; UniProt P03120 91-120, looked up, fragment)",mean percentage of wells exceeding medium control + 3 * SD,healthy donor PBMC; donor D5,94%
same,mean percentage of wells exceeding medium control + 3 * SD,healthy donor PBMC; donor D8,75%
"E2 151-180: 30-mer, amino acids 151-180 of HPV16 E2 protein (QVDYYGLYYVHEGIRTYFVQFKDDAEKYSK; UniProt P03120 151-180, looked up, fragment)",mean percentage of wells exceeding medium control + 3 * SD,healthy donor PBMC; donor D3,81%
same,mean percentage of wells exceeding medium control + 3 * SD,healthy donor PBMC; donor D8,81%
"E2 166-195: 30-mer, amino acids 166-195 of HPV16 E2 protein (TYFVQFKDDAEKYSKNKVWEVHAGGQVILC; UniProt P03120 166-195, looked up, fragment)",mean percentage of wells exceeding medium control + 3 * SD,healthy donor PBMC; donor D3,94%
same,mean percentage of wells exceeding medium control + 3 * SD,healthy donor PBMC; donor D5,81%
"E7 22-56: long peptide, amino acids 22-56 of HPV16 E7 protein (LYCYEQLNDSSEEEDEIDGPAGQAEPDRAHYNIVT; UniProt P03129 22-56, looked up, fragment)","recognition by HLA-DQ2 restricted Th-clone, IFNγ secretion",[1],secreted IFNγ
"E7 30-50: peptide, amino acids 30-50 of HPV16 E7 (DSSEEEDEIDGPAGQAEPDRA; UniProt P03129 30-50, looked up, fragment)","recognition by HLA-DQ2 restricted Th-clone, IFNγ secretion",[1],recognized
"E7 35-50: core sequence, amino acids 35-50 of HPV16 E7 (EDEIDGPAGQAEPDRA)","recognition by HLA-DQ2 restricted Th-clone, IFNγ secretion",[1],recognized the core sequence
"E7 35-55: peptide, amino acids 35-55 of HPV16 E7 (EDEIDGPAGQAEPDRAHYNIV; UniProt P03129 35-55, looked up, fragment)","recognition by HLA-DQ2 restricted Th-clone, IFNγ secretion",[1],recognized
"E7 50-62: core sequence, amino acids 50-62 of HPV16 E7 (AHYNIVTFCCKCD)",response of HLA-DR15 restricted Th-clone to pulsed APC,[1],core sequence recognized
E7 protein: recombinant HPV16-E7 protein produced in E. coli [reference compound],"recognition by HLA-DQ2 restricted Th-clone, IFNγ secretion",[1],secreted IFNγ
same,response of HLA-DR15 restricted Th-clone to pulsed APC,[1],specifically respond
"RAHYNIVTF (minimal 9 amino acid long CTL epitope) [E7 49-57, ID; NO, reference compound]",E7 49-57-specific CD8+ T cell response,"[2]; prime-boost, IFA",comparable to that after one vaccination
same,CD8+ T cells stained with tetramers,"[2]; vaccinated once, IFA, responders",~5%
same,mice responding to the vaccine (tetramer staining),"[2]; vaccinated once, IFA, spleens day 10",3 out of 9
same,number of responders,"[2]; vaccinated once, MPL",4/9
same,E7 49-57-specific CTL response,"[2]; vaccinated once, Montanide adjuvant",no responses were observed
same,number of responders,"[2]; vaccinated once, ODN-CpG",4/12
same,E7 49-57-specific CTL response,"[2]; vaccinated once, combined with anti-CD40 antibody or GM-CSF",no or minimal CTL responses
SSEEEDEIDGPAGQAEPDRAHY [E7 31-52],IC50,"HLA-DR1 (DRB*0101); read-out: Binding DR1, IC50",> 70 µM
same,IC50,"HLA-DR2 (DRB1*0201); HPV16-E7 22-mer peptides, >70 indicates undetectable binding, read-out: Binding DR2, IC50",> 70 µM
same,IC50,"HLA-DR3 (DRB*0301); HPV16-E7 22-mer peptides, >70 indicates undetectable binding, read-out: Binding DR3, IC50",> 70 µM
same,IC50,"HLA-DR4 (DRB*0401); HPV16-E7 22-mer peptides, >70 indicates undetectable binding, read-out: Binding DR4, IC50",> 70 µM
SSTWHWTGHNVKHKSAIVTLTYDSEWQRDQ [E2 316-345],IC50,HLA-DR1 (DRB*0101); [6],6 µM
same,IC50,HLA-DR2 (DRB1*0201); [3],55 µM
same,IC50,HLA-DR3 (DRB*0301); [4],30 µM
same,IC50,HLA-DR4 (DRB*0401); [5],> 70 µM
same,mean percentage of wells exceeding medium control + 3 * SD,healthy donor PBMC; donor D7,94%
"tetanus toxoid [TT, reference compound]",mean percentage of wells exceeding medium control + 3 * SD,healthy donor PBMC; donor D1,100%
same,mean percentage of wells exceeding medium control + 3 * SD,healthy donor PBMC; donor D2,100%
same,mean stimulation index of all test wells of both assays,healthy donor PBMC; donor D3,25
same,mean percentage of wells exceeding medium control + 3 * SD,healthy donor PBMC; donor D3,100%
same,mean percentage of wells exceeding medium control + 3 * SD,healthy donor PBMC; donor D4,100%
same,mean percentage of wells exceeding medium control + 3 * SD,healthy donor PBMC; donor D5,100%
same,mean stimulation index of all test wells of both assays,healthy donor PBMC; donor D6,139
same,mean percentage of wells exceeding medium control + 3 * SD,healthy donor PBMC; donor D6,100%
same,mean percentage of wells exceeding medium control + 3 * SD,healthy donor PBMC; donor D7,100%
same,mean stimulation index of all test wells of both assays,healthy donor PBMC; donor D8,59
same,mean percentage of wells exceeding medium control + 3 * SD,healthy donor PBMC; donor D8,100%
same,stimulation index (SI),"healthy donor PBMC; donors #3, 4, 5 and 7",13.3-25
same,stimulation index (SI),healthy donor PBMC; donors #3 and 6,≥ 100
